In ChEMBL document CHEMBL1140472, “Antioxidant properties and free radical-scavenging reactivity of a family of hydroxynaphthalenones and dihydroxyanthracenones” (Bioorg Med Chem, 2007):

Assays:
Format in all cases: functional
[1] = DPPH radical scavenging activity at 1.0 mM by ESR
[2] = Galvinoxyl radical scavenging activity by ESR; design: concentration or dose not given beside the values
[3] = Hydroxyl radical scavenging activity at 0.6 mM by ESR
[4] = Hydroxyl radical scavenging activity assessed as Trolox equivalent antioxidant capacity
[5] = Hydroxyl radical scavenging activity at 1.0 mM by ESR
[6] = DPPH radical scavenging activity at 2.0 mM by ESR

Compound: CC1(C)C=CC(=O)c2c(O)c3c(c(O)c21)CC=CC3
- Activity [1]: 4%
- Activity [2]: 0%
- Activity [3]: 47.5%
- Ratio [4]: 5.86
- Activity [5]: 68.2%

Compound: COc1ccc(O)c2c1C(C)(C)C=CC2=O
- Activity [1]: 4%
- Activity [2]: 0%
- Activity [3]: 47.5%
- Ratio [4]: 1.56
- Activity [5]: 47.5%

Compound: CC1C=CC(CO)c2c(O)c3c(c(O)c21)C(C)(C)C=CC3=O (stereo unspecified)
- Activity [1]: 4%
- Activity [2]: 0%
- Activity [3]: 47.5%
- Ratio [4]: 6.41
- Activity [5]: 72%

Compound: CC1C=CC(CO)c2c(O)c3c(c(O)c21)C(=O)C=CC3(C)C (stereo unspecified)
- Activity [6]: 93%
- Activity [1]: 4%
- Activity [2]: 0%
- Activity [3]: 47.5%
- Ratio [4]: 5.1
- Activity [5]: 71.3%

Compound: CC1(C)C=CC(=O)c2c(O)ccc(O)c21
- Activity [1]: 4%
- Activity [2]: 0%
- Activity [3]: 47.5%
- Ratio [4]: 3.76
- Activity [5]: 50%

Compound: COc1ccc(O)c2c1C(=O)C=CC2(C)C
- Activity [1]: 4%
- Activity [2]: 0%
- Activity [3]: 47.5%
- Ratio [4]: 3.42
- Activity [5]: 48.2%
